Where a SMILES comes first, the peptide text is derived from it.
Columns and labels:
C57BL/6 female mice = system: C57BL/6 female mice
Procedure: C57BL/6 female mice are treated with an injection of 100 μl containing 200 μg of peptide encompassing amino acid residues […], namely:
and 100 μl of complete Freund's adjuvant. In addition, […] of pertussis toxin is administered intraperitoneally on days 0 and 2 to permeate the blood-brain barrier.
One month after the date of disease induction, the spinal cord is examined for inflammatory infiltrates. Tissues are fixed in formaldehyde and stained with hematoxilin-eosin for cell counting. T cells are identified using an anti-CD3 antibody. Demyelination is detected by staining with Luxol Fast Blue (LFB).
To establish that cells of the present invention exert a suppressive effect on pathogenic T cells, two group of C57BL/6 female mice was treated by 4 weekly subcutaneous injections of 100 μg of peptide
corresponding to peptide of SEQ ID NO:5 but containing a redox motif (in bold). These injections were made with a formulation containing aluminum hydroxide as adjuvant.
A second group of mice immunized with peptide of SEQ ID NO:6 was then treated as in the positive control group, namely peptide of SEQ ID:5 with complete Freund's adjuvant and pertussis toxin.

[1] = system: Thy1.1 CD4+ T cells obtained by immunisation with peptide of SEQ ID NO:1; experiment: Mixed culture of Thy1.1 and Thy1.2 CD4+ T cells on antigen-presenting cells loaded with peptide of SEQ ID NO:1; type: cell-based, C57BL/6 mice; settings: 1/1 mixture with Thy1.2 CD4+ T cells elicited by SEQ ID NO:2, 7 days of culture
Procedure: Next, to determine whether CD4+ T cells obtained by immunisation with peptide of SEQ ID NO:2 could suppress pathogenic CD4+ T cells obtained by immunisation with peptide of SEQ ID NO:1, mixed cultures were performed with antigen-presenting cells loaded with peptide of SEQ ID NO:1. For such in vitro experiments, the two CD4+ T cell populations were obtained from C57BL/6 mice expressing either the Thy1.1 or the Thy1.2 surface phenotypic marker, identified by specific antibodies.
Dendritic cells converted from peripheral blood monocytes were used as antigen-presenting cells. Thus, 50×10^6 cells were incubated with 10 μg of peptide of SEQ ID NO:1 for 16 h at room temperature, washed and then incubated with a 1/1 mixture of Thy1.1 CD4+ T cells obtained by immunisation with peptide of SEQ ID NO:1 and Thy1.2 CD4+ T cells obtained by immunisation with peptide of SEQ ID NO:2. The phenotype of each CD4+ T cell population was then evaluated after 7 days of culture.

[2] = system: AQP4-specific CD4+ T cells; experiment: Phenotype of CD4+ T cells from AQP4 KO C57BL/6 mice immunized with AQP4 peptide; type: in vivo
Procedure: The C57BL/6 (H-2b) strain is the elective animal model as its natural repertoire of CD4+ T cells contains cells activable by immunisation with AQP4 epitopes whose sequences are entirely superposable to those activating human CD4+ T cells. Besides, the homology between human and mouse AQP4 is 93%. However, due to natural tolerance to AQP4, it remains difficult to generate T cells with a pathogenic potential. Therefore, C57BL/6 mice lacking expression of AQP4 (AQP4 KO) are used.
is used at 100 μg emulsified in complete Freund's adjuvant to immunize AQP4 KO C57BL/6 mice in the footpad, followed by 3 injections of 100 μg in incomplete Freund's adjuvant at 10-days intervals. Four weeks after the last injection, the mice are sacrificed and splenocytes are prepared. After separation of CD4+ T cells from the bulk splenocytes, lymphocytes specific for peptide of SEQ ID NO:1 are isolated by incubation with magnetic beads coated with class II (H2b) molecules loaded with peptide of SEQ ID NO:1.
AQP4-specific CD4+ T cells are then phenotyped and found to belong to the Th17 subtype.
A similar experiment is carried out in AQP4 KO C57BL/6 mice immunized with the same peptide, but containing a redox motif (in bold) in its flanking residues (SEQ ID NO:2), and with alum instead of CFA/IFA

wildtype C57BL/6 mice = experiment: IV transfer of peptide-elicited CD4+ T cells into wildtype C57BL/6 mice, spinal cord examination; type: in vivo; settings: 10^6 peptide-elicited CD4+ T cells per mouse IV, spinal cord ten days afterwards
Procedure: Such cells are then administered by IV injection in wildtype C57BL/6 mice (10^6 cells per mouse). Ten days afterwards, mice are sacrificed and the spinal cord isolated.
In a control experiment, 10^6 cells are administered by IV injection in wildtype C57BL/6 mice.

CD4+ T cells = experiment: Phenotype and cytokine production of Balb/c CD4+ T cells expanded in vitro with Staph. aureus nuclease peptides; type: cell-based, Balb/c mice; settings: after 2 cycles of stimulation on peptide-loaded antigen-presenting cells
Procedure: Balb/c mice kept under open conditions (not pathogen-free) show specific antibodies and CD4+ T cells towards Staph. aureus nuclease. Splenocytes are obtained from such mice to prepare CD4+ T cells. Such cells are cultured and expanded in the presence of antigen-presenting cells loaded with either peptide of sequence
After 2 cycles of stimulation, the phenotype and cytokine production of cells are examined. […] Other markers of CD4+ T cells with an immune suppressive function include DLL4 (Rubey et al. Diabetes 2020 69(5):915-926, CTLA2 (Sugita et al. J Immunol 2009 183(8):5013-22), TGF-beta2 (Mir et al. Immunology 2015 146(4):547-56, arginase (Khoshnejad et al. Mol Ther Methods Clin Dev 2020 18:652-663 and meteorin (Baht et al. Nat Metab 2020 2(3):278-289)

[3] = system: cells obtained by stimulation with peptide of SEQ ID NO:7; experiment: Coculture of CFSE-labelled SEQ ID NO:7 cells with SEQ ID NO:8 cells, proliferation by CFSE dilution; type: cell-based, Balb/c mice
Procedure: Cells obtained by stimulation with peptide of SEQ ID NO:7 were labelled with CFSE and cultured together with cells obtained with peptide of SEQ ID NO:8 at a 1 to 1 ratio on antigen-presenting cells loaded with peptide of SEQ ID NO:7.
After 7 days of coculture, the proliferation of cells was measured by CFSE dilution.

[4] = system: CD4+ obtained from the spleen of mice immunized with peptide of SEQ ID NO:3; experiment: Co-culture of CFSE-labelled CD4+ cells (SEQ ID NO:3) with CD4+ T cells from mice immunized with SEQ ID NO:4; type: cell-based, NOD mice
NOD mice = experiment: Insulitis by pancreas histology in immunized NOD mice; type: in vivo; settings: female NOD mice, 100 μg in aluminium hydroxide four times at a week interval from six weeks old, histology at week 15
Text: Non-obese diabetes (NOD) mice are the most used animal model for diabetes due to the spontaneous development of insulitis, hyperglycaemia and diabetes in a context wherein both inflammation and auto-immunity play determining roles. The local lesion, insulitis, starts accumulating after a few weeks, so that therapeutic interventions should be considered as suppressive rather than preventive.
Six-weeks old female NOD mice are immunized with a peptide made of a class II-restricted T cell epitope of GAD65 (319-333: ILEVKQKGFVPFLVS, SEQ ID NO:3) or with the same peptide containing a redox motif (bold figures) in its flanking residues
Immunisation is carried out using 100 μg of peptide of SEQ ID NO:4 in aluminium hydroxide, four times at a week interval. Control mice receive peptide of SEQ ID NO:3 according to the same injection schedule.
Mice are then sacrificed at week 15, the pancreas is isolated and evaluated by histology to identify insulitis.

[5] = AQP4 KO C57BL/6 mice immunized with peptide in alum

CC[C@H](C)[C@H](NC(=O)CNC(=O)[C@@H](NC(=O)[C@H](CS)NC(=O)[C@@H]1CCCN1C(=O)[C@H](Cc1ccc(O)cc1)NC(=O)[C@H](CS)NC(=O)[C@@H](N)Cc1c[nH]cn1)[C@@H](C)O)C(=O)N[C@@H](CC(C)C)C(=O)N[C@@H](CC(=O)O)C(=O)N[C@@H](CO)C(=O)N[C@H](C(=O)NCC(=O)N[C@@H](CCCNC(=N)N)C(=O)N[C@@H](Cc1ccccc1)C(=O)N[C@@H](Cc1ccccc1)C(=O)N[C@@H](CO)C(=O)NCC(=O)O)[C@@H](C)CC [SEQ ID NO:6, HCYPCTGILDSIGRFFSG] (H-HCYPCTGILDSIGRFFSG-OH)
signs of disease after immunisation alone (C57BL/6 female mice; 4 weekly subcutaneous injections of 100 μg with aluminum hydroxide, no disease induction): no signs of disease

HCPYCSIMVAFKGVWTQAFWKAV (AQP4redox; (9)..(20) core epitope) [SEQ ID NO:2, same AQP4 peptide containing a redox motif in its flanking residues]
phenotype of Thy1.1 CD4+ T cells (SEQ ID NO:1-elicited) in mixed culture [1]: lost their phenotypic characteristics of Th17 cells | proliferation of Thy1.1 CD4+ T cells (SEQ ID NO:1-elicited) in mixed culture [1]: no proliferation | factors produced by CD4+ T cells obtained from the spleen [2, 5]: PGE2 (prostaglandin E2) and IL-10 | markers characterizing CD4+ T cells obtained from the spleen [2, 5]: TIGIT and CTLA2 | spinal cord inflammatory lesions / infiltration (wildtype C57BL/6 mice): no inflammatory lesions or T lymphocytes

HCYPCHNTHEQHLRKS (Sa Nucleaseredox) [SEQ ID NO:8, Staph. aureus nuclease peptide containing a redox motif]
cytokine production of cells obtained by stimulation (CD4+ T cells): IL-4, IL-10, IL-13 and amphiregulin (AREG) | surface expression on cells obtained by stimulation (CD4+ T cells): TIGIT and BLIMP-1 | proliferation of SEQ ID NO:7-obtained cells in presence of SEQ ID NO:8-obtained cells (CFSE dilution) ([3]; 1 to 1 ratio, antigen-presenting cells loaded with SEQ ID NO:7, 7 days of coculture): do not proliferate | phenotype of SEQ ID NO:8-obtained cells after coculture ([3]; 7 days of coculture on antigen-presenting cells loaded with SEQ ID NO:7): unchanged phenotype

HCYPCILEVKQKGFVPF (GAD65redox) [SEQ ID NO:4]
capacity of recovered CFSE-labeled cells to proliferate upon presentation of cognate epitope (SEQ ID NO:3) ([4]; cells recovered from co-culture with SEQ ID NO:4-elicited CD4+ T cells): lost their capacity to proliferate | reduction in numbers of CFSE-labelled CD4+ cells (SEQ ID NO:3) by co-culture ([4]; co-culture with CD4+ T cells from spleen of mice immunized with SEQ ID NO:4): circa 5% | islets with no sign of inflammation or cellular infiltrate (NOD mice): > 70%

ILEVKQKGFVPFLVS (GAD65 epitope) [SEQ ID NO:3, reference compound]
islets with no sign of inflammation or cellular infiltrate (NOD mice): the reverse

NTHEQHLRKS (Sa Nuclease) [SEQ ID NO:7, Staph. aureus nuclease peptide, no redox motif, reference compound]
cytokine production of cells obtained by stimulation (CD4+ T cells): interferon gamma (IFN-γ) | phenotype of cells obtained by stimulation (CD4+ T cells): characteristics of Th1 cells

SIMVAFKGVWTQAFWKAV (AQP4 epitope; (4)..(15) core epitope) [SEQ ID NO:1, peptide encompassing amino acid residues 21-38 of AQP4, no redox motif, reference compound]
subtype of AQP4-specific CD4+ T cells ([2]; AQP4 KO C57BL/6 mice, 100 μg in CFA then 3 x 100 μg in IFA, splenocytes four weeks after last injection): Th17 subtype | spinal cord inflammatory lesions / infiltration (wildtype C57BL/6 mice): Infiltration with inflammatory cells, including AQP4-specific CD4+ T cells is observed

TGILDSIGRFFSG (MBP) [SEQ ID NO:5]
demyelination by Luxol Fast Blue (LFB) staining (C57BL/6 female mice; SEQ ID NO:5 = disease induction, SEQ ID NO:6 = 4 weekly sc 100 μg in aluminum hydroxide before induction): signs of demyelination | T lymphocyte / inflammatory infiltrates in the spinal cord (C57BL/6 female mice; hematoxilin-eosin and anti-CD3, SEQ ID NO:5 = disease induction, SEQ ID NO:6 = 4 weekly sc 100 μg in aluminum hydroxide before induction): significant infiltrates including T lymphocytes

Source: US20230201323A1, “VACCINE FORMULATIONS” (EUUALY S.A., priority 2020, published 2023)
